row,melting point,SMILES
1,229 to 230 °C,O=C1Nc2ccccc2CCCC1N1C(=O)c2ccccc2C1=O (configuration not stated)
2,120 to 122 °C,CCC1Cc2cc(OC)ccc2C2CCC3(C)C(=O)CC(C)C3C12 (configuration not stated)
3,210 to 211 °C,Cc1cc(C)c(C)c(COc2cccc(-c3ccoc3C(=O)NNC(=O)c3ccc(O)c(C#N)c3)c2)c1C
4,157 to 158 °C,CC(=O)N1CCC(CCC(=O)c2ccc3c(c2)CCN3c2ccncc2)CC1
5,134 to 135 °C,CC(CC(=O)O)CC(=O)c1ccc(N2CCC(c3ccccc3)CC2)cc1 (configuration not stated)
6,192 to 195 °C,Cc1ccc2c(c1)N(CC(=O)c1ccccc1C)C(=O)C(NC(=O)Nc1ccc(C)c(C(=O)O)c1)CN2C(=O)c1cccs1 (configuration not stated)
7,100 to 103 °C,COc1cc2cn(C3CCCCC3)nc2cc1OC
8,193 to 195 °C,COc1ccc2c(c1)C(=O)C(CN1CCC(O)(c3ccc(F)cc3)CC1)CC2 (configuration not stated)
9,114 °C,CC(SC1COC(c2ccc3cc(C(=O)Nc4ccc(C#N)cc4)ccc3c2)OC1)C(O)(Cn1cncn1)c1ccc(F)cc1F (configuration not stated)
10,253 to 255 °C,CCOc1cc(C(=O)NC2CC(C)(C)NC(C)(C)C2)ccc1-c1cc2cc(Cl)c(Cl)cc2[nH]1
11,66 °C,CN1CCC(OC2c3cccc(Cc4ccccc4)c3CCn3cc(-c4ccccc4)nc32)CC1 (configuration not stated)
12,185 to 186 °C,CSc1ccc(-n2cnc3ccc(-c4nnc(CCc5cccc(C#N)c5)o4)cc32)cc1
13,182 °C,COC(=O)c1ccc(C2c3[nH]c4ccccc4c3CCN2C(=O)C=Cc2cccc(C(=O)OC)c2)cc1 (configuration not stated)
14,196 to 200 °C,OC1CSC(Oc2ccc(-c3cncnc3)cc2)C(O)C1O (configuration not stated)
15,176 to 177 °C,Cc1c(NC(=O)c2ccc(-c3ccc4c(c3)CCO4)cc2)ccc2cc(CN3CCCC3)cnc12
16,166 °C,Cc1ccc(-c2occc2C(=O)O)cc1
17,355 to 360 °C,COc1ccc(-c2ccc(O)c(C34CC5CC(CC(C5)C3)C4)c2)cc1C=C1SC(N2CCOCC2)=NC1=O

row,melting point,SMILES
1,183 to 184 °C,CC(C)(C)OC(=O)COc1ccc2sc(-c3ccccn3)nc(=O)c2c1
2,124 °C,O=C1c2cc3nnn(CCC4=CCCCC4)c(=O)c3cc2OC2CCCN12 (configuration not stated)
3,190 to 193 °C,Nc1ccc2c(=O)n3c(nc2c1)C(=Cc1ccccc1)CCC3
4,208 to 210 °C,CN1C2CCCC1CC(NC(=O)c1cccc3nc(-c4ccccc4)oc13)C2 (configuration not stated)
5,156 to 160 °C,COc1cc(OC)c(-c2c[nH]c(C3CC3)n2)cc1C=CC(=O)c1ccc(S(N)(=O)=O)cc1
6,348 to 353 °C,O=C(Oc1n[nH]c(=O)c2nc3cc(Cl)ccc3c(O)c12)c1ccccc1
7,113 to 114 °C,COCCNC(=O)c1cccc(-c2cccc3cc(Cc4cccc(C(F)(F)F)c4)sc23)c1
8,173 to 176 °C,COC1CCN(c2cc(NC(=O)OC(C)(C)C)c(N)cc2C#Cc2ccccc2)CC1
9,237 to 239 °C,O=S(=O)(c1ccc(O)c(Br)c1)N1c2ccc(Br)cc2-c2ccccc2C1c1ccccc1 (configuration not stated)
10,220 to 222 °C,Nc1ncc(-c2cccc(-n3cnc4cc(-c5ccco5)ccc43)c2)cn1
11,210 °C,Cc1cc2ccccc2cc1C1CC(=O)C=C(O)C1 (configuration not stated)
12,172 to 174 °C,O=S(=O)(Nc1ccc2c(OCc3ccc(-c4ccc(Cl)c(Cl)c4)cc3F)cccc2c1)C(F)(F)F
13,198 to 200 °C,COc1ccc(C(=O)Nc2ccc(C(C)(C)C#N)c(-c3cncnc3)c2)cc1OC
14,68 to 70 °C,N#CC=C1CCN(c2ccc(N3C[C@H](CNC(=O)CO)OC3=O)cc2F)CC1
15,96 to 98 °C,CN(C)C(=O)c1cc(CN2C(=O)C3(COc4cc5c(cc43)OCO5)c3ccccc32)oc1C(F)(F)F (configuration not stated)
16,134 to 135 °C,OC1(c2ccc(Cl)cc2)CCN(CCCOc2ccc(F)cc2)CC1

# Further lines, the compound ahead of its results:
row,SMILES,melting point
1,CCCOc1ccc(S(=O)(=O)Cl)cc1C(N)=O,122 to 129 °C
2,CCOC(=O)CCCC(=O)c1ccc(Br)s1,53 to 54 °C
3,O=c1[nH]nc2c3c(cccc13)Oc1ccc(COP(=O)(OCc3ccccc3)OCc3ccccc3)cc1-2,223 to 225 °C
4,COC(=O)Cc1ccccc1[C@@H]1O[C@H]1c1ccccc1 (relative stereo),118 to 119 °C
5,CN(O)C(=O)C1=Cc2cc(OCc3ccccc3)ccc2OC1,143 to 146 °C
6,N#Cc1ccc(C=C2CCNC2=O)cc1,260 °C
7,O=c1c2ccccc2cc(Cl)n1-c1ccc(Cl)cc1,125 to 127 °C
8,O=C(O)C1Cc2ccccc2CN1C(=O)CCS (configuration not stated),55 to 58 °C
9,O=C(O)CCCCCCCCCCn1c(-c2ccccc2)nc(-c2ccccc2)c1-c1ccccc1,76 to 78 °C
10,COP(=S)(OC)Oc1nsc(SC)n1,45 °C
11,O=C(OC1CCCCC1)c1ccc(Cl)c([N+](=O)[O-])c1,57 to 58 °C
12,N#Cc1c[nH]cc1-c1cccc(F)c1,140 to 142 °C
13,CCCCC(=O)N(CCOC)Cc1ccc(-c2ccccc2-c2nnn[nH]2)cc1,120 to 122 °C
14,COC(=O)Cn1c(-c2ccccc2Cl)nc2cccnc21,198 to 200 °C
15,CCOP(=O)(Cc1ccc(NC(=O)C(Cc2ccccc2)C(=O)O)cc1)OCC (configuration not stated),160 to 161 °C
16,CC(C)C[C@H](NC(=O)OCc1ccccc1)C(=O)N[C@@H](CCc1ccccc1)C(=O)CSCc1ccco1,73 to 77 °C
17,FC(F)(F)C(F)(F)CCCSCCCCCOc1ccc(C2=C(c3ccccc3)CCCc3ccccc32)cc1,84 to 85 °C
18,COCOc1cc2c(cc1-c1cc(C=CC(=O)O)ccc1O)C(C)(C)CCC2(C)C,101 to 103 °C
19,CC(C)(CF)C(=O)C(Oc1ccc(Cl)cc1)n1cncn1 (configuration not stated),60 to 63 °C
20,CC(C)(C)C(=O)OCN(c1ccc(CN2CCN(Cc3ccccc3)C(=O)C2=O)cc1)c1ncccn1,144 to 146 °C
21,CCOC(=O)C(=O)Nc1cccc(OCc2ccccc2)c1C(N)=O,151 to 153 °C
22,O=C1CCCC(=NNc2ccccc2)C1,187 to 189 °C

row,SMILES,melting point
1,O=[N+]([O-])c1cc(Br)cc2c1[nH]c1ccc(Br)cc12,252 to 256 °C
2,O=C(c1ccccc1)C(OCc1ccc(Cl)cc1Cl)n1ccnc1 (configuration not stated),109 to 111 °C
3,CC(C)(C)OC(=O)CN1CCC(=O)N(CC(=O)OC(C)(C)C)CCC1=O,180 °C
4,CCCCCCCCCCCCC(C)(CO)CO,67 to 68 °C
5,Cc1cc2c(c3ccc(=O)[nH]c13)OC(CNC(=O)CN(C)C(=O)OC(C)(C)C)C2 (configuration not stated),190 to 191 °C
6,CNC(=O)C(=NOC)c1ccccc1COc1ncc(Br)cc1C,115 to 116 °C
7,c1ccc(C2CN3CCN=C3S2)nc1 (configuration not stated),70 °C
8,Cc1nc[nH]c1CSCCNC1=Nc2ccccc2C(=O)C1,121 to 124 °C
9,CCOC(=O)c1ccccc1CN1C(=O)C(CCO)Oc2ccccc21 (configuration not stated),114 to 116 °C
10,CCCCCCCCCCCCCCCCCCOc1cccc(CC(=O)OC)c1,43 to 45 °C
11,CCC(C)(C)c1ccc(S(=O)(=O)Nc2ncnc(OCCOc3ccc(Br)cn3)c2-c2ccc(C)cc2)cc1,154 °C
12,Cn1cc2c(=O)[nH]c(=S)[nH]c2n1,200 °C
13,CCCCCCCCCCCC(=O)OCC(COCc1ccccc1)OC(=O)CCCCCCCCCCC (configuration not stated),30 to 31 °C
14,CN1CC[C@H](c2ccccc2)[C@H](O)C1 (relative stereo),95 to 97 °C
15,CC(C(C#N)C(=O)O)C(C)(C)C (configuration not stated),68 to 78 °C
16,Cn1nc(S(C)(=O)=O)c(=O)c2ccccc21,202 to 204 °C
17,O=C(Nc1cccc(Cc2nnn[nH]2)c1)C(F)(F)C(F)(F)C(F)(F)F,148 to 151 °C
18,O=[N+]([O-])N=C1NCCN1Cc1cc(Br)no1,149 °C
19,CCCCc1nn(-c2cc(NC(=O)c3ccccc3)ccc2Br)c(=O)n1Cc1ccc(-c2ccccc2S(=O)(=O)NC(=O)OC(C)(C)C)cc1F,130 to 133 °C
20,CCOC(=O)CN1C(=O)COc2cc([N+](=O)[O-])ccc21,120 to 122 °C
21,COC(=O)CC(C(=O)OC)N1C(=O)C2NC(C)(C)SC21 (configuration not stated),136 to 137 °C
22,CC(C)c1ccc(N(Cc2ccc(N(C)C)cc2)C(=O)C2CCCc3cc(O)ccc32)cc1 (configuration not stated),169 to 171 °C

row,SMILES,melting point
1,CC(=O)OC1CSC(Oc2cccc(-c3cccnc3C)c2)C(OC(C)=O)C1OC(C)=O (configuration not stated),153 °C
2,CCOC(=O)NS(=O)(=O)c1c(C(=O)OCC)c(Cl)nn1C,82 to 85 °C
3,COc1ccc(C(O)C(CO)[N+](=O)[O-])cc1OC (configuration not stated),134 to 138 °C
4,c1ccc2cc(-c3nc(COc4ccc(CCCn5ccnc5)cc4)co3)ccc2c1,131 to 132 °C
5,CCOC(=O)C(=O)Cc1cc(=O)n(Cc2ccc(Cl)cc2)c2ccccc12,180 to 182 °C
6,CC(C)OC(=O)c1cn(-c2cccc(Cl)c2)cn1,109 °C
7,COc1cc(N=CN(C)C)c(Cl)cc1C(=O)NC1CN2CCC1CC2 (configuration not stated),178 to 180 °C
8,CC(C)(C(=O)O)C(=O)Oc1ccc(C(=O)c2ccccc2)cc1,147 to 150 °C
9,Fc1ccc(C=Nc2nc3ccc(Cl)cc3s2)cc1,168 to 169 °C
10,CC#CCOc1ccc(S(=O)(=O)N(Cc2cccnc2)C(CSCc2ccccc2)C(=O)NO)cc1 (configuration not stated),74 to 78 °C
11,CCc1nn2ccccc2c1N(CCF)C(=O)COC,66.9 to 70.6 °C
12,CC(C)(C)OC(=O)[C@H]1C[C@H](C(=O)Nc2ccccc2)[C@@H](c2ccccc2F)N1C(=O)CNC(=O)Nc1cccc(C(=O)O)c1 (racemic),170 °C
13,O=C1CCCCCC1C(c1ccc(Cl)cc1)[N+](=O)[O-] (racemic),77 to 78 °C
14,COC(C)CCC1(O)C2=NCCCN2c2cccc(Cl)c21 (configuration not stated),164 to 165 °C
15,O=C(Nc1ccc2ccc(Cl)nc2n1)c1ccncc1,220 °C
16,CC(=O)OC(C)C1CCC2C3CC=C4C=CCCC4(C)C3CCC12C (configuration not stated),103 to 104 °C
17,CNc1ccc(C(=O)N2CCN(CCc3ccc(SC)cc3)CC2)cc1,120 to 121 °C
18,CCc1cc2c(s1)N(C)C(=O)C(OC(=O)Nc1cccc(C)c1)N=C2c1ccccc1Cl (configuration not stated),181 to 182 °C
19,CCOCc1nc2c(N)nc3c(c2n1CC1(O)CCCC1)CCCC3,171 to 173 °C
20,CC(C)NC(=O)c1ccc(N2CCC(N3C(=O)OCc4ccccc43)CC2)nc1,> 230 °C
